The record followed here is patent publication US20110263699A1 (priority 2002, published 2011).

Structures can show the parent of a compound that is named as a salt.

Assay [1] concerns the target 5HT uptake (Homo sapiens, UniProt P31645). In words: biochemical. Particulars: read-out: 5HT uptake inhibition Ki values.
Assay [2] has as its target μ-Opioid receptor (Rattus norvegicus, UniProt P33535). In words: μ-Opioid receptor binding (rat).
The test system of assay [3] is duration of immobility. The assay can be described thus: Tail suspension test on mice. Format: in vivo. From the text:
Rodents left hanging by the tail rapidly become immobile. Antidepressants reduce the duration of the immobility, while tranquilizers prolong the duration of the immobility. […] Several mice were investigated in parallel and the duration of immobility determined. […] 10-20 mice were investigated per group. […] In this behavioural model, antidepressants, as also in other behavioural models, lead to a shortening of the immobility phase, while opioids such as morphine prolong the immobility phase.

For assay [4], the target named is NA uptake (Homo sapiens, UniProt P23975). In words: biochemical. The settings on record: read-out: NA uptake inhibition Ki values.
Sequence of NA uptake (P23975 whole entry): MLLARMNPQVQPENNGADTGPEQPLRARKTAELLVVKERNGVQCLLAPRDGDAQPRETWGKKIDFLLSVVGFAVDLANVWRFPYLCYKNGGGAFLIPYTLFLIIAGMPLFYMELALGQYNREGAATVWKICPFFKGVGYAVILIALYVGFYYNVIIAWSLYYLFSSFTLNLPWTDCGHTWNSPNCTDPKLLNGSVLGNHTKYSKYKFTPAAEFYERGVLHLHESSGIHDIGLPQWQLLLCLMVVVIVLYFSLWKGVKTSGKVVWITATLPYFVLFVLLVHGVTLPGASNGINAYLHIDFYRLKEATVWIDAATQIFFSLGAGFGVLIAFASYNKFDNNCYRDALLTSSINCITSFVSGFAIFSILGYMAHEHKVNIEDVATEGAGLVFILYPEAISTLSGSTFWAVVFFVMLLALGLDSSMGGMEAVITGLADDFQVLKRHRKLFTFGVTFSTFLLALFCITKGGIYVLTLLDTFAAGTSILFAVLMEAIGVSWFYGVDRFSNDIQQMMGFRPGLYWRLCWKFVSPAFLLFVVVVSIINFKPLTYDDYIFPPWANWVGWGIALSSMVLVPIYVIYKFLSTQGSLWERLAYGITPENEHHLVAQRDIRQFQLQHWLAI
Assay [5] deals with T1, μ-Opioid receptor (Homo sapiens, UniProt P35372). In words: μ-Opioid receptor binding (human).
Target sequence in this assay (P35372 whole entry): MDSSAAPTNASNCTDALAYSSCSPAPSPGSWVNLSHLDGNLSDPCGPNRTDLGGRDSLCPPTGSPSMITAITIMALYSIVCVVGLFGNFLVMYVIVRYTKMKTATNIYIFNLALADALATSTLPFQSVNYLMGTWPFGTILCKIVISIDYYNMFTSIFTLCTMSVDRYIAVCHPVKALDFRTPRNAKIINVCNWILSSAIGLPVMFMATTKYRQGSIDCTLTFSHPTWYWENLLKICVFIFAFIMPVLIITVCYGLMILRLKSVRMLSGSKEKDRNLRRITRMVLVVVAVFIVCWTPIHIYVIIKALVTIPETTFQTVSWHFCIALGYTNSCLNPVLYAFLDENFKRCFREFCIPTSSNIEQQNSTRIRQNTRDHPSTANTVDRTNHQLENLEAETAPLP
Assay [6] deals with T1, μ-Opioid receptor. The assay can be described thus: μ-Opioid receptor binding (species not given).
Target sequence in this assay (P35372 whole entry, species assumed): as the sequence (P35372 whole entry) above
The mark [7] stands for this setting: 4.64 mg/kg i.p., 30 minutes before the test.

Sequence of 5HT uptake (P31645 whole entry): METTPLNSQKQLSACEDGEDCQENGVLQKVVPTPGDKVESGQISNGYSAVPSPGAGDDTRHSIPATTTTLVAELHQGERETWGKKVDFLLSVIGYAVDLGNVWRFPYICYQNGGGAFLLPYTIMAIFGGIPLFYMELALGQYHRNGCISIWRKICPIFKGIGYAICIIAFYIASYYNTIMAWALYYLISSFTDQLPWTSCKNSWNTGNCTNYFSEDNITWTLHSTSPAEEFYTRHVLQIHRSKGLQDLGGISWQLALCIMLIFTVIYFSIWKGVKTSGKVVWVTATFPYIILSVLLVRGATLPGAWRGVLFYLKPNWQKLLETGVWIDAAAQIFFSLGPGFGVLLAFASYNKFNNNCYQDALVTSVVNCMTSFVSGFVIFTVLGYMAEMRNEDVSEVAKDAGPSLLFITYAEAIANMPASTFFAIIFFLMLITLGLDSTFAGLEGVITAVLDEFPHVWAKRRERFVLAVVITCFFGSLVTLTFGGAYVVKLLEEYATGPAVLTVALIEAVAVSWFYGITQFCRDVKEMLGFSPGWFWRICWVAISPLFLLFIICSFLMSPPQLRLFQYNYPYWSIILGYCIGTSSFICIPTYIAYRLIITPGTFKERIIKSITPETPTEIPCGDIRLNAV
Sequence of μ-Opioid receptor (Rattus norvegicus, UniProt P33535) (P33535 whole entry): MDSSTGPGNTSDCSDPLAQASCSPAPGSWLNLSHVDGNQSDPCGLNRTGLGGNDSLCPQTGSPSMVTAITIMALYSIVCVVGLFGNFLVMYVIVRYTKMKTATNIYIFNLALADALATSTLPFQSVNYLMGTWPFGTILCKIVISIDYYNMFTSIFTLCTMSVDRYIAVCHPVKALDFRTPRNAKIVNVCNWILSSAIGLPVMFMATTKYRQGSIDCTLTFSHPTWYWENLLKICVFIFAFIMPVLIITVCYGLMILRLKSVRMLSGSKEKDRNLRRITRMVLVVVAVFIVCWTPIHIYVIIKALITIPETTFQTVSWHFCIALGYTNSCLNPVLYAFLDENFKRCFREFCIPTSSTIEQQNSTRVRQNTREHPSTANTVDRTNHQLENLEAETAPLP

What is called Ki is a measure of affinity in units of concentration, obtained from inhibition or displacement. Turning to `CN(C)C[C@@H]1CCCC[C@H]1c1cccc(O)c1.Cl` [(1R,2R)-3-(2-dimethylaminomethyl-cyclohexyl)-phenol; hydrochloride], the Ki worked out at 50 nM in assay [1], 38 nM in assay [2] and 160 nM in assay [4]. Moreover, the “Duration of immobility % change compared with the solvent control” value (from here on “Duration of immobility % change”) in assay [3] (setting [7]) is reported as “+6%”. Also, in assay [3] (after pretreatment with naloxone), the “Duration of immobility (in words)” value is given as “marked decrease in the duration of immobility”. Further, in assay [3] (without naloxone pretreatment), the “Duration of immobility compared with the solvent control (in words)” value was “only a slight change in the duration of immobility”.
With `CNC[C@@H]1CCCC[C@H]1c1cccc(O)c1` [(1R,2R)-3-(2-methylaminomethyl-cyclohexyl)-phenol, hydrochloride], the Ki in assay [1] was 9410 nM; in assay [5] it was 910 nM; in assay [4], 560 nM.
As for `CNCCCN1c2ccccc2CCc2ccccc21` [Desipramine, desipramine], the “μ-Opioid receptor Ki values” in assay [6] is “inactive”.
Still for that read-out and setting: then `CNCCC(Oc1ccc(C(F)(F)F)cc1)c1ccccc1` (stereo not shown) [Fluoxetine, fluoxetine], with “inactive”.
Take `CN(C)CCCN1c2ccccc2CCc2ccccc21` [Imipramine, imipramine]: the “Duration of immobility % change” value in assay [3] (31.6 mg/kg i.p., 30 minutes before the test) is −61%.
Turning to `CN1CC[C@]23c4c5ccc(O)c4O[C@H]2[C@@H](O)C=C[C@H]3[C@H]1C5` [Morphine, morphine], the “Duration of immobility % change” value was “+90%” in assay [3] (setting [7]); “+145%” in assay [3] (10.0 mg/kg i.p., 30 minutes before the test); “+169%” in assay [3] (21.5 mg/kg i.p., 30 minutes before the test).
`C=CCN1CC[C@]23c4c5ccc(O)c4O[C@H]2C(=O)CC[C@@]3(O)[C@H]1C5` [Naloxone, naloxone]: the “Duration of immobility % change” value in assay [3] (1.0 mg/kg i.v.) is on record as −15%.
